This assay addresses human PD-L1 (Homo sapiens (Human), UniProt Q9NZQ7). Kind of assay: Enzyme-Linked Immunosorbent Assay—ELISA (PD-1/PD-L1 binding). To be noted: plates coated with human PD-L1; Human PD-1 and biotin added; absorbance at 450 nm. The procedure: 96 Well plates were coated with 1 μg/mL of human PD-L1 (obtained from R&D) in PBS overnight at 4° C. The wells were then blocked with 2% BSA in PBS (W/V) with 0.05% TWEEN-20 for 1 hour at 37° C. The plates were washed 3 times with PBS/0.05% TWEEN-20 and the compounds were serial diluted (1:5) in dilution medium and added to the ELISA plates. Human PD-1 and biotin 0.3 μg/mL (ACRO Biosystems) were added and incubated for 1 hour at 37° C. then washed 3 times with PBS/0.05% TWEEN-20. A second block was performed with 2% BSA in PBS (W/V)/0.05% TWEEN-20 for 10 min at 37° C. and the plates were washed 3 times with PBS/0.05% TWEEN-20. Streptavidin-HRP was added for 1 hour at 37° C. then the plates were washed 3 times with PBS/0.05% TWEEN-20. TMB substrate was added and reacted for 20 min at 37° C. A stop solution (2 N aqueous H2SO4) was added. The absorbance was read at 450 nm using a micro-plate spectrophotometer. The results are shown in Table 1: IC50 values are provided as follows: from 1000 to 10,000 nM (+); from 10 up to 1000 nM (++); less than 10 nM (+++).

Structures are written as SMILES.

Sequence of human PD-L1 (Q9NZQ7 19-239): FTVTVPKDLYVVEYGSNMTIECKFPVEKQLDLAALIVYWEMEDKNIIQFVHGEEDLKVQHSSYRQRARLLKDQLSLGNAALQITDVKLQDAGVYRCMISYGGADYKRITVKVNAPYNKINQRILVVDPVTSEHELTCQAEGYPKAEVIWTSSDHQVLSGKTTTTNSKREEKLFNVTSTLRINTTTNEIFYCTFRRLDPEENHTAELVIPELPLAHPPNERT

On to `COc1nc(-c2cccc(-c3cccc(NC(=O)c4cn(C)c(=O)n(C)c4=O)c3Cl)c2F)ccc1CNC[C@@H]1CCC(=O)N1` [Compound 1.063], for which the IC50 was below 0.01 µM.
Compound `COc1nc(-c2cccc(-c3cccc(NC(=O)c4cn(C)c(=O)n(C)c4=O)c3Cl)c2Cl)ccc1CN1CC[C@@H](C(=O)O)C1` [Compound 1.074] had an IC50 below 0.01 µM.
As for `CCc1nc(-c2cccc(-c3cccc(NC(=O)c4cn(C)c(=O)n(C)c4=O)c3Cl)c2Cl)cnc1CNC[C@@H]1CCC(=O)N1` [Compound 1.077], the figure is below 0.01 µM; as for `COc1nc(-c2cccc(-c3cccc(NC(=O)c4cn(C)c(=O)n(C)c4=O)c3Cl)c2Cl)ccc1CNC[C@H](C)O` [Compound 1.034], below 0.01 µM; as for `COc1nc(-c2cccc(-c3cccc(NC(=O)c4cn(C)c(=O)n(C)c4=O)c3Cl)c2Cl)ccc1CN1CC(NS(C)(=O)=O)C1` [Compound 1.073], below 0.01 µM.
As for `COc1nc(-c2cccc(-c3cccc(NC(=O)c4cn(C)c(=O)n(C)c4=O)c3C)c2C#N)ccc1CN[C@@H]1CCOC[C@@H]1O` [Compound 1.026], the figure is below 0.01 µM; as for `COc1nc(-c2cccc(-c3cccc(NC(=O)c4cn(C)c(=O)n(C)c4=O)c3C)c2Cl)ccc1CN1CC(C)(C(=O)O)C1` [Compound 1.053], below 0.01 µM.
The same measure for `CCc1nc(-c2cccc(-c3cccc(NC(=O)c4cn(C)c(=O)n(C)c4=O)c3Cl)c2Cl)ccc1CN1CC(C(=O)O)C1` [Compound 1.071]: below 0.01 µM.
`COc1nc(-c2cccc(-c3cccc(NC(=O)c4cn(C)c(=O)n(C)c4=O)c3Cl)c2Cl)cnc1CN1CC(C(=O)O)C1` [Compound 1.100]: the IC50 is below 0.01 µM.
The same measure for `COc1nc(-c2cccc(-c3cccc(NC(=O)c4cn(C)c(=O)n(C)c4=O)c3Cl)c2Cl)ccc1CN1CC[C@@](C)(O)C1` [Compound 1.027]: below 0.01 µM.
As for `COc1nc(-c2cccc(-c3cccc(NC(=O)c4cn(C)c(=O)n(C)c4=O)c3Cl)c2C)ccc1CNC[C@@H]1CCC(=O)N1` [Compound 1.068], the IC50 was below 0.01 µM.
Compound `CCc1nc(-c2cccc(-c3cccc(NC(=O)c4cn(C)c(=O)n(C)c4=O)c3Cl)c2Cl)ccc1CN[C@@H]1CCOC[C@@H]1O` [Compound 1.075] showed an IC50 below 0.01 µM.
The same measure for `COc1nc(-c2cccc(-c3cccc(NC(=O)c4cn(C)c(=O)n(C)c4=O)c3Cl)c2Cl)ccc1CN1CC(C)(C(=O)O)C1` [Compound 1.085]: below 0.01 µM; for `COc1nc(-c2cccc(-c3cccc(NC(=O)c4cn(C)c(=O)n(C)c4=O)c3Cl)c2Cl)ccc1CNC[C@H]1CCC(=O)N1` [Compound 1.066]: below 0.01 µM.
The same measure for `COc1nc(-c2cccc(-c3cccc(NC(=O)c4cn(C)c(=O)n(C)c4=O)c3C)c2Cl)ccc1CN[C@@H](C)CO` [Compound 1.021]: below 0.01 µM.
Compound `CCc1nc(-c2cccc(-c3cccc(NC(=O)c4cn(C)c(=O)n(C)c4=O)c3Cl)c2Cl)ccc1CNC[C@@H]1CCC(=O)N1` [Compound 1.076] yielded an IC50 below 0.01 µM.
As for `COc1nc(-c2cccc(-c3cccc(NC(=O)c4cn(C)c(=O)n(C)c4=O)c3Cl)c2Cl)cnc1CN[C@@H]1CNC(=O)C1` [Compound 1.002], the figure is below 0.01 µM; as for `COc1nc(-c2cccc(-c3cccc(NC(=O)c4cncn(C)c4=O)c3Cl)c2Cl)ccc1CNC[C@@H]1CCC(=O)N1` [Compound 1.060], below 0.01 µM; as for `COc1nc(-c2cccc(-c3cccc(NC(=O)c4cn(C)c(=O)n(C)c4=O)c3Cl)c2Cl)cnc1CNC[C@@H]1CCC(=O)N1` [Compound 1.003], below 0.01 µM.
`COc1nc(-c2cccc(-c3cccc(NC(=O)c4cn(C)c(=O)n(C)c4=O)c3C)c2Cl)ccc1CN1CC(C(=O)O)C1` [Compound 1.082] displayed an IC50 below 0.01 µM.
As for `COc1nc(-c2cccc(-c3cccc(NC(=O)c4cn(C)c(=O)n(C)c4=O)c3Cl)c2Cl)ccc1CN(C)C[C@@H]1CCC(=O)N1` [Compound 1.058], the figure is 0.01 to 1 µM; as for `COc1nc(-c2cccc(-c3cccc(NC(=O)c4cn(C)c(=O)n(C)c4=O)c3Cl)c2)ccc1CNC[C@@H]1CCC(=O)N1` [Compound 1.067], below 0.01 µM.
In turn, `COc1nc(-c2cccc(-c3cccc(NC(=O)c4cn(C)c(=O)n(C)c4=O)c3C)c2Cl)ccc1CN(C)CCO` [Compound 1.052] had a half-maximal inhibitory concentration (IC50) below 0.01 µM.
The same measure for `COc1nc(-c2cccc(-c3cccc(NC(=O)c4cn(C)c(=O)n(C)c4=O)c3Cl)c2Cl)ccc1CNC[C@@H]1CCC(=O)N1` [Compound 1.088]: below 0.01 µM.
Consider `COc1nc(-c2cccc(-c3cccc(NC(=O)c4cn(C)c(=O)n(C)c4=O)c3C)c2Cl)ccc1CN1CC[C@](C)(O)C1` [Compound 1.019], for which the IC50 is below 0.01 µM.
The same measure for `COc1nc(-c2cccc(-c3cccc(NC(=O)c4cn(C)c(=O)n(C)c4=O)c3C)c2Cl)ccc1CNCCO` [Compound 1.056]: below 0.01 µM; for `COc1cc(-c2cccc(-c3cccc(NC(=O)c4cn(C)c(=O)n(C)c4=O)c3C)c2C)cnc1CNCCO` [Compound 1.010]: below 0.01 µM; for `COc1nc(-c2cccc(-c3cccc(NC(=O)c4cn(C)c(=O)n(C)c4=O)c3C)c2Cl)ccc1CNC(C)(C)CCO` [Compound 1.050]: below 0.01 µM.
In turn, `COc1nc(-c2cccc(-c3cccc(NC(=O)c4cn(C)c(=O)n(C)c4=O)c3C)c2Cl)ccc1CN[C@@H]1CCOC[C@@H]1O` [Compound 1.008] came in with an IC50 below 0.01 µM.
As for `COc1nc(-c2cccc(-c3cccc(NC(=O)c4cn(C)c(=O)n(C)c4=O)c3C)c2Cl)ccc1CN1CCC(O)CC1` [Compound 1.046], the IC50 is below 0.01 µM.
Compound `COc1nc(-c2cccc(-c3cccc(NC(=O)c4cn(C)c(=O)n(C)c4=O)c3Cl)c2Cl)cnc1CN1CC(O)C1` [Compound 1.098] had an IC50 below 0.01 µM.
As for `COc1nc(-c2cccc(-c3cccc(NC(=O)c4cn(C)c(=O)n(C)c4=O)c3C)c2Cl)ccc1CN1CC(C)(O)C1` [Compound 1.038], the figure is below 0.01 µM.
`COc1cc(-c2cccc(-c3cccc(NC(=O)c4cn(C)c(=O)n(C)c4=O)c3Cl)c2Cl)ncc1CN1CC(C)(C(=O)O)C1` [Compound 1.083]: the IC50 is below 0.01 µM.
As for `COc1nc(-c2cccc(-c3cccc(NC(=O)c4cn(C)c(=O)n(C)c4=O)c3Cl)c2Cl)ccc1CN[C@@H]1CCOC[C@@H]1O` [Compound 1.087], the figure is below 0.01 µM; as for `COc1nc(-c2cccc(-c3cccc(NC(=O)c4cn(C)c(=O)n(C)c4=O)c3Cl)c2Cl)ccc1CN1CC(C(=O)O)C1` [Compound 1.084], below 0.01 µM.
`COc1nc(-c2cccc(-c3cccc(NC(=O)c4cn(C)c(=O)n(C)c4=O)c3C)c2Cl)ccc1CNCCC(C)(C)O` [Compound 1.023] returned an IC50 below 0.01 µM.
Take `COc1nc(-c2cccc(-c3cccc(NC(=O)c4cn(C)c(=O)n(C)c4=O)c3C)c2Cl)ccc1CN[C@@H]1COC[C@@H]1O` [Compound 1.012]: the IC50 is below 0.01 µM.
The same measure for `COc1nc(-c2cccc(-c3cccc(NC(=O)c4cn(C)c(=O)n(C)c4=O)c3C)c2Cl)ccc1CNC[C@H](C)O` [Compound 1.029]: below 0.01 µM; for `Cc1c(NC(=O)c2cn(C)c(=O)n(C)c2=O)cccc1-c1cccc(-c2ccc(CNC[C@@H]3CCC(=O)N3)c(C(F)(F)F)n2)c1Cl` [Compound 1.045]: below 0.01 µM; for `COc1nc(-c2cccc(-c3cccc(NC(=O)c4cn(C)c(=O)n(C)c4=O)c3C)c2Cl)ccc1CNC[C@@H]1CCC(=O)N1C` [Compound 1.043]: below 0.01 µM.
The same measure for `COc1nc(-c2cccc(-c3cccc(NC(=O)c4cn(C)c(=O)n(C)c4=O)c3C)c2Cl)ccc1CN[C@H]1CCOC[C@@H]1O` [Compound 1.013]: below 0.01 µM; for `CCc1nc(-c2cccc(-c3cccc(NC(=O)c4cn(C)c(=O)n(C)c4=O)c3Cl)c2Cl)ccc1CN1CC(O)C1` [Compound 1.072]: 0.01 to 1 µM; for `COc1nc(-c2cccc(-c3cccc(NC(=O)c4cccn(C)c4=O)c3Cl)c2Cl)ccc1CNC[C@@H]1CCC(=O)N1` [Compound 1.069]: below 0.01 µM.
In turn, `COc1nc(-c2cccc(-c3cccc(NC(=O)c4cn(C)c(=O)n(C)c4=O)c3C)c2Cl)ccc1CNCC1(C)CCC(=O)N1` (stereo not drawn) [Compound 1.015] yielded an IC50 below 0.01 µM.
Regarding `COc1nc(-c2cccc(-c3cccc(NC(=O)c4cn(C)c(=O)n(C)c4=O)c3Cl)c2Cl)ccc1CN[C@@](C)(CO)C(=O)O` [Compound 1.070], the IC50 is below 0.01 µM.
The same measure for `COc1nc(-c2cccc(-c3cccc(NC(=O)c4cn(C)c(=O)n(C)c4=O)c3C)c2Cl)ccc1CNCC(C)(C)CO` [Compound 1.049]: below 0.01 µM; for `COc1nc(-c2cccc(-c3cccc(NC(=O)c4cn(C)c(=O)n(C)c4=O)c3Cl)c2Cl)ccc1CNCC(C)(C)C(N)=O` [Compound 1.057]: below 0.01 µM; for `COc1nc(-c2cccc(-c3cccc(NC(=O)c4cn(C)c(=O)n(C)c4=O)c3C)c2Cl)cnc1CNC[C@@H]1CCC(=O)N1` [Compound 1.079]: below 0.01 µM.
With `COc1cc(-c2cccc(-c3cccc(NC(=O)c4cn(C)c(=O)n(C)c4=O)c3C)c2Cl)cnc1CN[C@@H]1CCOC[C@@H]1O` [Compound 1.009], the IC50 is below 0.01 µM.
The same measure for `COc1nc(-c2cccc(-c3cccc(NC(=O)c4cn(C)c(=O)n(C)c4=O)c3C)c2Cl)ccc1CN1CC2(CCC(=O)N2)C1` [Compound 1.096]: below 0.01 µM; for `COc1nc(-c2cccc(-c3cccc(NC(=O)c4cn(C)c(=O)n(C)c4=O)c3Cl)c2Cl)ncc1CN[C@@H]1CCOC[C@@H]1O` [Compound 1.089]: below 0.01 µM.

The values above are taken from US11713307B2, “Heteroaryl-biphenyl amides for the treatment of PD-L1 diseases” (CHEMOCENTRYX, INC., priority 2019, dated 2023).
